Data: patent US20250319213A1, “FUNCTIONALIZED BISAMINOTHIOL DERIVATIVES, COMPLEXES WITH THESE BISAMINOTHIOL DERIVATIVES AND USE OF SAID COMPLEXES AS DIAGNOSTICS AND THERAPEUTICS” (ABX ADVANCED BIOCHEMICAL COMPOUNDS – BIOMEDIZINISCHE …, priority 2022, published 2025)

Experiments:
[1] = molecular target: T1, PSMA (Homo sapiens, UniProt Q04609); experiment: Competitive binding affinity on LNCaP cells against [68Ga]Ga-PSMA-11 (competition); conditions: natRe complex of the listed compound, 1 nM [68Ga]Ga-PSMA-11, 1 h 37° C., mean ± SEM
T1 construct: host or cells: LNCaP human prostate carcinoma cells
Procedure: (§1) Competition, saturation and internalization assays were assessed using the high PSMA expressing human prostate carcinoma cell line LNCaP (ATCC® CRL-1740). The cells were grown as monolayer at 37° C. in a humidified atmosphere comprising 5% CO2 and 95% air in RPMI medium including 10% FCS (Merck KGAA, Germany). After washing the confluent cells twice with phosphate buffered saline (PBS) and detaching them with trypsin/EDTA (0.05%/0.02%), the cells were suspended in medium and counted (Casy TT, Omni Life Science, Germany).
For competition monolayer of LNCaP cells were seeded, 1×10^5 cells/well in 24-well plates two days before the assay. On the day of competition, after aspirating the medium, 100 μL of PBS and, for competition 100 μL of different concentrations of the test compound in PBS (10^−12 to 10^−6 M) were pipetted into the wells, simultaneously to 400 μL of medium including 1 nM of [^68Ga]Ga-PSMA-11.
(§2) After 1 hour of incubation at 37° C. both for competition and saturation samples, the supernatants were aspirated and the cells washed twice with cold PBS. The cell lawn was lysed with 500 μL NaOH/SDS (0.1 M/1%) by shaking for 3 to 5 minutes. After transferring the lysates into measuring tubes, the activity of the samples was measured in a gamma counter (2480 Automatic Gamma Counter Wizard 2, Perkin Elmer, USA).
(§3) The half maximal inhibitory concentrations (IC50) and the dissociations constants (Kd) were calculated by fitting the data using a nonlinear curve-fitting program (GraphPad Prism 9). With the Kd value of [^68Ga]Ga-PSMA-11 on LNCaP and the known concentration of [^68Ga]Ga-PSMA-11 in the competition assay the inhibition constants (Ki) was also determined with the curve-fitting program.

[2] = molecular target: T1, PSMA; experiment: Direct binding affinity on LNCaP cells (saturation); conditions: [99mTc]TcO complex of the listed compound, saturation 0.3-40 nM, 1 h 37° C., mean ± SEM, read-out: Kd [nM] of [99mTc]TcO-complexes
Procedure: as §1
For saturation monolayer of LNCaP cells were seeded, 5×10^4 cells/well in 48-well plates two days before the assay. On the day of saturation, after aspirating the medium, 160 μL of medium (for ^99mTc-labeled radioligand with D-mannitol (1 mg/mL)) were pipetted per well, for non-specific binding samples including 100 μM 2-PMPA. After preincubation for 5 min, 40 μL activity ([^68Ga]Ga-PSMA-11 or ^99mTc-labeled radioligand solution) were added (total volume/well: 200 μL). Eight concentrations ranged between 0.3 and 40 nM.
as §2, §3

[3] = test system: subcutaneous LNCaP tumor xenografts; experiment: SPECT/CT and PET/CT imaging in LNCaP tumor bearing mice; format: in vivo; conditions: LNCaP xenograft model
Procedure: A prostate cancer xenograft model was generated via subcutaneous injection of human LNCaP cells into the right shoulder of 8-12 week-old male nude mice (Rj:NMRI-Foxn1^nu/nu, Janvier Labs, Le Genest-Saint-Isle, France). Imaging studies were performed when tumors reached a diameter of >6 mm. General anesthesia was induced and maintained with inhalation of 10% (v/v) desflurane in […] oxygen/air. During anesthesia, animals were continuously warmed at 37° C.
Small animal single-photon emission computed tomography (SPECT) was performed using the nanoSPECT/CT scanner (Mediso Medical Imaging Systems) equipped with an APT63 aperture consisting of four M3 multi-pinhole collimators. Each animal received 30 MBq of ^99mTc-labeled compounds delivered in 0.2 mL of Dulbecco's phosphate-buffered saline as a single intravenous injection through a tail vein catheter. Photon emission was recorded using frame times of 60 s (1 h scan: 40-70 min), 90 s (4 h scan, 3.5-4.5 h), and 320 s (20 h scan, 18.5-21.5 h), and binned simultaneously within the 20% energy window of the 140.5 keV photopeak. With each SPECT scan, a corresponding CT image was recorded and used for anatomical referencing and attenuation correction. SPECT images were reconstructed using the Tera-Tomo™ three-dimensional (3D) algorithm at normal range with a voxel size of 0.4 mm and applying corrections for scatter attenuation, and decay.
Small animal positron emission tomography (PET) was performed using the nanoPET/CT scanner (Mediso Medical Imaging Systems). Each animal received 10 MBq of the radiolabeled reference compound [^68Ga]Ga-PSMA-11 delivered in Dulbecco's phosphate-buffered saline as a single intravenous injection through a tail vein catheter. Emission of the 511 keV annihilation photons was recorded continuously at a coincidence mode of 1:5 for 60 min following radiotracer injection. With each PET scan, a corresponding CT image was recorded and used for anatomical referencing and attenuation correction. Three-dimensional list mode data were binned using the 400-600 keV energy window. PET images of the 40-60 min time frame were reconstructed using the Tera-Tomo™ three-dimensional (3D) algorithm with a voxel size of 0.4 mm and applying corrections for random events, scatter, attenuation, and decay.
Three-dimensional VOIs were created applying fixed threshold for delineation of tumor (30%), muscle (0%); and kidneys (39%). Standardized uptake values (SUV=[MBq detected activity/mL tissue]/[MBq injected activity/g body weight], mL/g) were determined and reported as max SUV (VOI-maximum). Time-activity curves were generated and further analyzed using Prism (GraphPad Software, San Diego CA, USA).

[4] = as early as 1 hour after injection

T1 sequence (Q04609 whole entry): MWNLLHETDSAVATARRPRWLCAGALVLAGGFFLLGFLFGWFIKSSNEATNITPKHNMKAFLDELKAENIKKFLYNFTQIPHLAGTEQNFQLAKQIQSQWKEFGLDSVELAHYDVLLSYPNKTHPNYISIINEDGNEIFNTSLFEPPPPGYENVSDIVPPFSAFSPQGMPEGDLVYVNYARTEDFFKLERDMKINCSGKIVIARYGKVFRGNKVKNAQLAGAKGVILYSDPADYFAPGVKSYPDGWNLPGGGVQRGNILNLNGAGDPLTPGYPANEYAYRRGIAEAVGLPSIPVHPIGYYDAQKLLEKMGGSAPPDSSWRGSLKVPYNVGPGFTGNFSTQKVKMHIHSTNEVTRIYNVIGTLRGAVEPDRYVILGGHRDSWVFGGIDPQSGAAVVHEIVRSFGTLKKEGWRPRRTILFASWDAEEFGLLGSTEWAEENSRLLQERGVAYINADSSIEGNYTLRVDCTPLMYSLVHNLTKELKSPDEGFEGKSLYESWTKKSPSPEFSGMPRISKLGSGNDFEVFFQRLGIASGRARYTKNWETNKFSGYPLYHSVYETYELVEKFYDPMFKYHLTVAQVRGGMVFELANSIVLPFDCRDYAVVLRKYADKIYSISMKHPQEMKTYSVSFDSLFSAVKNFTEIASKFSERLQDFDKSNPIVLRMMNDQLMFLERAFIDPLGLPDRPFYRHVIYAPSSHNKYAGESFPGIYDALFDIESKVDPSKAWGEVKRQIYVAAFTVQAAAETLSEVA

Ki [1] | Kd [2] | tumor-to-kidney ratio [3, 4] | tumor-to-muscle ratio [3, 4] | Structure (SMILES) | pharmacokinetic properties and organ distribution compared to the prior art [3]
4.8 ± 3.4 nM | 15.5 ± 3.2 nM |  |  | CC(C)(S)CNCCN(CCCCC(=O)N[C@@H](Cc1ccccc1)C(=O)N[C@@H](Cc1ccccc1)C(=O)N[C@@H](CCCCNC(=O)CCCCCCC(=O)NCCCC[C@H](NC(=O)N[C@@H](CCC(=O)O)C(=O)O)C(=O)O)C(=O)O)CC(C)(C)S [Compound 1] | 
7.3 ± 1.6 nM | 15.8 ± 9.1 nM |  |  | CC(C)(S)CNCCN(CCCCC(=O)N[C@@H](CCCCNC(=O)CCCCCCC(=O)NCCCC[C@H](NC(=O)N[C@@H](CCC(=O)O)C(=O)O)C(=O)O)C(=O)O)CC(C)(C)S [Compound 3] | 
9.3 ± 0.9 nM | 7.2 ± 1.7 nM | High | High | CC(C)(S)CNCCN(CCCCC(=O)N[C@@H](CCC(=O)O)C(=O)N[C@@H](CCC(=O)O)C(=O)N[C@H](CCCCNC(=O)CCCCCCC(=O)NCCCC[C@H](NC(=O)N[C@@H](CCC(=O)O)C(=O)O)C(=O)O)C(=O)O)CC(C)(C)S [Compound 5] | faster pharmacokinetic properties and a more favorable organ distribution
